This assay concerns P388 leukemia ip, CD2F1 mice, survival T/C. Description: NCI In Vivo Anticancer Drug Screen. Data for tumor model P388 Leukemia (intraperitoneal) in CD2F1 (CDF1) mice. The settings on record: endpoint: median survival time, higher = longer survival. The gist of the method: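 Mice carrying the transplanted tumor received test compound or vehicle. Survival was recorded in each group, and the value is the treated-group measurement divided by that of the vehicle-treated control group.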

The mark [1] stands for this setting: dose: 6.25 mg/kg/injection, schedule: Q01DX005 (ip), vehicle: saline with Tween-80.
Setting [2] is: dose: 60.0 mg/kg/injection, schedule: Q01DX005 (ip), vehicle: saline with Tween-80.
Where [3] appears, read: dose: 120.0 mg/kg/injection, schedule: Q01DX005 (ip), vehicle: saline with Tween-80.
[4] abbreviates: dose: 240.0 mg/kg/injection, schedule: Q01DX005 (ip), vehicle: saline with Tween-80.
The mark [5] stands for this setting: dose: 50.0 mg/kg/injection, schedule: Q01DX009 (ip), vehicle: saline.
The mark [6] stands for this setting: dose: 100.0 mg/kg/injection, schedule: Q01DX009 (ip), vehicle: saline.
[7] abbreviates: dose: 200.0 mg/kg/injection, schedule: Q01DX009 (ip), vehicle: saline.
Where [8] appears, read: dose: 60.0 mg/kg/injection, schedule: Q01DX005 (ip), vehicle: Klucel (hydroxypropylcellulose) (HPC).
Where [9] appears, read: dose: 120.0 mg/kg/injection, schedule: Q01DX005 (ip), vehicle: Klucel (hydroxypropylcellulose) (HPC).
Where [10] appears, read: dose: 240.0 mg/kg/injection, schedule: Q01DX005 (ip), vehicle: Klucel (hydroxypropylcellulose) (HPC).
Where [11] appears, read: dose: 50.0 mg/kg/injection, schedule: Q01DX005 (ip), vehicle: Klucel (hydroxypropylcellulose) (HPC).
[12] abbreviates: dose: 100.0 mg/kg/injection, schedule: Q01DX005 (ip), vehicle: Klucel (hydroxypropylcellulose) (HPC).
Setting [13] is: dose: 200.0 mg/kg/injection, schedule: Q01DX005 (ip), vehicle: Klucel (hydroxypropylcellulose) (HPC).
[14] abbreviates: dose: 100.0 mg/kg/injection, schedule: Q01DX009 (ip), vehicle: saline with Tween-80.
Setting [15] is: dose: 200.0 mg/kg/injection, schedule: Q01DX009 (ip), vehicle: saline with Tween-80.
Where [16] appears, read: dose: 6.25 mg/kg/injection, schedule: Q01DX009 (ip), vehicle: saline with Tween-80.
Setting [17] is: dose: 12.5 mg/kg/injection, schedule: Q01DX009 (ip), vehicle: saline with Tween-80.

Several values for one entry are separate records, joined by “and”; a condition that tells them apart may be missing. Identical values can stand only once. Inconclusive results and toxic doses are left out. Square brackets hold non-standard residues; d marks the D form. Peptide text beside a SMILES is read from it. * marks the point of attachment. Cbz = O=C(OCc1ccccc1)*; Nva = CCC[CH](N)C(=O)O

Turning to `O=C1[C@@H]2CCC[C@@H]2[C@H]2CCC[C@@H]12`, the T/C by setting is: (dose: 100.0 mg/kg/injection, schedule: Q01DX001 (ip), vehicle: saline with Tween-80) 95 % of control; (dose: 200.0 mg/kg/injection, schedule: Q01DX001 (ip), vehicle: saline with Tween-80) 102 % of control; (dose: 400.0 mg/kg/injection, schedule: Q01DX001 (ip), vehicle: saline with Tween-80) 89 % of control.

For `CN(/N=C/c1ccc(Cl)cc1)P(=O)(N1CC1)N1CC1`, the T/C by setting is: under setting [1], 116 % of control; (dose: 12.5 mg/kg/injection, schedule: Q01DX005 (ip), vehicle: saline with Tween-80) 116 % of control; (dose: 50.0 mg/kg/injection, schedule: Q01DX005 (ip), vehicle: saline with Tween-80) 171 % of control.

In the case of `CCn1c(=O)n(Cc2ccccc2)c(=O)c2ccccc21`, the T/C under setting [2] is 93 % of control, the T/C under setting [3] was 93 % of control and the T/C under setting [4] was 91 % of control.

For `COc1ccc(/C(C)=N/OC(=O)c2c(-c3ccccc3Cl)noc2C)cc1CN1CCOCC1`, the T/C under setting [5] is 94 % of control, the T/C under setting [6] was 97 % of control and the T/C under setting [7] was 97 % of control.

On to `N#CC1C(=O)NC(=S)NC1c1ccc(Cl)cc1` (stereo unspecified), for which the T/C by setting is: (dose: 50.0 mg/kg/injection, schedule: Q01DX009 (ip), vehicle: Klucel (hydroxypropylcellulose) (HPC)) 94 % of control; (dose: 100.0 mg/kg/injection, schedule: Q01DX009 (ip), vehicle: Klucel (hydroxypropylcellulose) (HPC)) 101 % of control.

On to `CN1C(=O)/C(=C2\SC(=O)N(CN3CCCCC3)C2=O)c2cc(Br)ccc21`, for which the T/C is 90 % of control under setting [8], 90 % of control under setting [9] and 95 % of control under setting [10].

With `CC1[C@@H]2C[C@@H]3O[C@@]34[C@H]3CCC5Cc6nc7c(nc6C[C@@]5(C)C3(O)CC(=O)[C@@]24CO[C@]12OC(C)(C)CC2O)CC1CC[C@@H]2C3=C[C@H]4O[C@@]5(O[C@@](C)(CO)C[C@@H]5O)C(C)[C@@]4(O)[C@]3(C)[C@@H](O)CC2[C@]1(C)C7` (stereo partly specified), the T/C was 107 % of control (dose: 12.5 micrograms/kg/injection, schedule: Q01DX009 (ip), vehicle: saline + alcohol); 109 % of control (dose: 25.0 micrograms/kg/injection, schedule: Q01DX009 (ip), vehicle: saline + alcohol); 114 % of control (dose: 50.0 micrograms/kg/injection, schedule: Q01DX009 (ip), vehicle: saline + alcohol); 116 % of control (dose: 100.0 micrograms/kg/injection, schedule: Q01DX009 (ip), vehicle: saline + alcohol).

As to `CCCC(NC(=O)OCc1ccccc1)C(=O)NC(C(=O)O)C(C)C` (stereo unspecified) (Cbz-[Nva]-Val-OH; configuration not given here), the T/C runs as follows: under setting [11], 94 % of control; under setting [12], 92 % of control; under setting [13], 96 % of control.

On to `O=S(=O)(Oc1ccc2ccccc2c1)C(F)(F)C(F)(F)C(F)(F)C(F)(F)F`, for which the T/C was 100 % of control (dose: 50.0 mg/kg/injection, schedule: Q01DX009 (ip), vehicle: saline with Tween-80); 108 % of control under setting [14]; 108 % of control under setting [15].

Turning to `CSCSCC(CO)NC(=O)C(Cl)Cl` (stereo unspecified), the T/C is 102 % of control (dose: 50.0 mg/kg/injection, schedule: Q01DX009 (ip), vehicle: water); 106 % of control (dose: 200.0 mg/kg/injection, schedule: Q01DX009 (ip), vehicle: water); 113 % of control (dose: 400.0 mg/kg/injection, schedule: Q01DX009 (ip), vehicle: water).

Regarding `Nc1ccc2[nH]c(=S)[nH]c2c1`, the T/C is, setting by setting: (dose: 10.0 mg/kg/injection, schedule: Q01DX009 (ip), vehicle: saline with Tween-80) 100 % of control; (dose: 20.0 mg/kg/injection, schedule: Q01DX009 (ip), vehicle: saline with Tween-80) 104 % of control; (dose: 40.0 mg/kg/injection, schedule: Q01DX009 (ip), vehicle: saline with Tween-80) 100 % of control; under setting [14], 95 % of control; (dose: 400.0 mg/kg/injection, schedule: Q01DX009 (ip), vehicle: saline with Tween-80) 95 % of control.

With `CC(C)C([N+](C)(C)C)P(=O)([O-])O` (stereo unspecified), the T/C by setting is: under setting [14], 100 % of control; under setting [15], 90 % of control.

As to `O=C([Se][Se]C(=O)c1ccccc1)c1ccccc1`, the T/C is, setting by setting: under setting [16], 101 % of control; under setting [17], 107 % of control; (dose: 25.0 mg/kg/injection, schedule: Q01DX009 (ip), vehicle: saline with Tween-80) 107 % of control.

On to `Oc1cc2c(cc1O)[C@H]1c3ccc(O)c(O)c3OC[C@@]1(O)C2`, for which the T/C by setting is: (dose: 6.25 mg/kg/injection, schedule: Q01DX009 (ip), vehicle: saline) 100 % of control; (dose: 12.5 mg/kg/injection, schedule: Q01DX009 (ip), vehicle: saline) 101 % of control; (dose: 25.0 mg/kg/injection, schedule: Q01DX009 (ip), vehicle: saline) 112 % of control; under setting [5], 122 % of control; under setting [6], 113 % of control; under setting [7], 115 % of control.

Turning to `N#Cc1c(-c2ccccc2)c(C#N)c(=O)n(N)c1N`, the T/C is, setting by setting: under setting [11], 91 % of control and 93 % of control; under setting [12], 86 % of control; under setting [13], 86 % of control.

As for `CCCCCCCCCCCCCCCCNCC(O)CN` (stereo unspecified), the T/C (dose: 3.13 mg/kg/injection, schedule: Q01DX009 (ip), vehicle: saline with Tween-80) was 102 % of control; the T/C under setting [16] is 96 % of control; the T/C under setting [17] was 88 % of control.

On to `CS(C)=C1C(=O)C(=O)C(=S(C)C)C(=O)C1=O`, for which the T/C was 107 % of control under setting [2], 104 % of control under setting [3] and 100 % of control under setting [4].

Take `CC1CC(C)CN(S(=O)(=O)c2cc(Cl)c(Oc3ccc([N+](=O)[O-])cc3Cl)c(Cl)c2)C1` (stereo unspecified): the T/C is 101 % of control under setting [8], 100 % of control under setting [9] and 110 % of control under setting [10].

For `CC1SC(C)C1=O` (stereo unspecified), the T/C (dose: 60.0 mg/kg/injection, schedule: Q01DX005 (ip), vehicle: saline) is 109 % of control; the T/C (dose: 120.0 mg/kg/injection, schedule: Q01DX005 (ip), vehicle: saline) was 107 % of control; the T/C (dose: 240.0 mg/kg/injection, schedule: Q01DX005 (ip), vehicle: saline) is 100 % of control.

As to `COc1ccc(C2=C[P+](c3ccccc3)(c3ccccc3)C=C(c3ccccc3)O2)cc1`, the T/C (dose: 0.75 mg/kg/injection, schedule: Q01DX005 (ip), vehicle: saline with Tween-80) was 100 % of control and 110 % of control; the T/C (dose: 0.75 mg/kg/injection, schedule: Q01DX005 (ip), vehicle: saline) was 120 % of control; the T/C (dose: 1.5 mg/kg/injection, schedule: Q01DX005 (ip), vehicle: saline with Tween-80) was 108 % of control and 119 % of control; the T/C (dose: 1.5 mg/kg/injection, schedule: Q01DX005 (ip), vehicle: saline) was 110 % of control; the T/C (dose: 3.0 mg/kg/injection, schedule: Q01DX005 (ip), vehicle: saline with Tween-80) is 110 % of control and 120 % of control; the T/C (dose: 3.0 mg/kg/injection, schedule: Q01DX005 (ip), vehicle: saline) was 120 % of control. Also, the T/C is, setting by setting: (dose: 3.12 mg/kg/injection, schedule: Q01DX005 (ip), vehicle: saline with Tween-80) 114 % of control; (dose: 6.0 mg/kg/injection, schedule: Q01DX005 (ip), vehicle: saline with Tween-80) 111 % of control; under setting [1], 118 % of control.

`CN1CCN(c2nc3cccnc3s2)CC1`: the T/C runs as follows: (dose: 25.0 mg/kg/injection, schedule: Q04DX003 (ip), vehicle: saline with Tween-80) 106 % of control; (dose: 50.0 mg/kg/injection, schedule: Q04DX003 (ip), vehicle: saline with Tween-80) 101 % of control; (dose: 100.0 mg/kg/injection, schedule: Q04DX003 (ip), vehicle: saline with Tween-80) 100 % of control.

For the compound `O=[N+]([O-])c1cc(CNCCO)c(O)c2ncccc12`, the T/C is, setting by setting: under setting [2], 91 % of control; under setting [3], 93 % of control; under setting [4], 110 % of control.

The record behind these values is PubChem BioAssay AID330 (DTP/NCI, 2004).
